Measurements as given in patent publication US5554752A, “Spirovesamicols” (Regents of the University of Minnesota, priority 1995, dated 1996).
Where a name gives a salt, the structure may show the parent alone.

Columns and labels:
[1] = target: vesamicol receptor; assay: Vesamicol receptor binding ([3H]vesamicol); conditions: for Ki: [3H]vesamicol approx. 5 nM, 24 h equilibration, racemates, read-out: Ki (Inhibitory potency of Spirovesamicols)
[2] = system: vesamicol receptor; conditions: literature, cited from earlier work
[3] = system: α-adrenoceptor; conditions: at higher doses; cited from earlier work
[4] = system: cholinergic neurotransmission; conditions: Brittain et al, 1969; cited from earlier work
[5] = system: storage and release of neurotransmitter; conditions: literature; cited from earlier work
[6] = system: cholinergic neurotransmission; assay: Pharmacological Activity of Spirovesamicols in Male Wistar Rats (anticholinergic signs and lethality, intraperitoneal); type: in vivo, rat; conditions: i.p.
Description: Rats and mice were injected intraperitoneally with solutions of the compounds in aqueous EtOH (or aqueous DMSO). […] LD20 lethal dose for 20% of animals tested; LD40, lethal dose for 40%; LD60, lethal dose for 60%; L100, lethal dose for all animals; NR, no visible pharmacologic reaction; S, sluggishness and reduced locomotor activity; +, mild symptoms of anticholinergic activity; ++, severe signs of anticholinergic activity.

[7] = system: cholinergic neurotransmission; assay: Pharmacological Activity of Spirovesamicols in Male Swiss Webster Mice (anticholinergic signs and lethality, intraperitoneal); type: in vivo, mouse; conditions: i.p.
Description: In vivo anticholinergic activity was evaluated in Swiss Webster mice. Blockade of cholinergic neurotransmission (or anticholinergic activity) was manifested in a rapidly developing respiratory distress, spasms and paralysis. At lethal doses these symptoms were followed by death within 10-20 min. As evident in Tables 1 and 2, the representative compounds tested were lethal at doses as low as 10 umol/Kg.
Rats and mice were injected intraperitoneally with solutions of the compounds in aqueous EtOH (or aqueous DMSO). […] At lethal doses, death generally occurred within 20 minutes following the injection. LD20 lethal dose for 20% of animals tested; LD40, lethal dose for 40%; LD60, lethal dose for 60%; L100, lethal dose for all animals; NR, no visible pharmacologic reaction; S, sluggishness and reduced locomotor activity; +, mild symptoms of anticholinergic activity; ++, severe signs of anticholinergic activity.

1'(4-Hydroxy-1-(2-fluorobenzyl)piperidin-3-yl)-spiro[1H-indene-1,4'-piperidine]dihydrochloride [Compound 11f]
Ki [1]: 0.248 ± 0.025 nM

O[C@@H]1CCCC[C@H]1N1CCC(c2ccc(Cl)cc2)CC1 (relative stereo) [Compound 1b]
potency/activity relative to vesamicol, in words [2]: between two and eight times less potent than vesamicol

O=[N+]([O-])c1ccc(C2CCN([C@@H]3CCCC[C@H]3O)CC2)cc1 (relative stereo) [Compound 1c]
potency/activity relative to vesamicol, in words [2]: between two and eight times less potent than vesamicol

Nc1cccc2c1C[C@@H](N1CCC(c3ccccc3)CC1)[C@H](O)C2 (relative stereo) [Compound 2b]
potency/activity relative to vesamicol, in words [2]: a potent VR ligand

O[C@@H]1CCCC[C@H]1N1CCc2ccccc2C1 (relative stereo) [Compound 6a]
loss of activity relative to vesamicol ([2]; less active than vesamicol): 125 times

O=C1NCN(c2ccccc2)C12CCN([C@@H]1CCCC[C@H]1O)CC2 (relative stereo) [Compound 6b]
potency/activity relative to vesamicol, in words [2]: inactive

O[C@@H]1CCCC[C@H]1N1CCC(c2ccccc2)CC1 [(-)-vesamicol, reference compound]
Kd ([1]; conditions of this assay, read-out: dissociation constant (kd)): 1 nM

OC1CCCCC1N1CCC(c2ccccc2)CC1 (centres unmarked) [Compound 1, 2-(4-phenylpiperidino)cyclohexanol]
α-adrenoceptor activity [3]: exhibits α-adrenoceptor activity at higher doses | Ki [1]: 1 nM | effects in laboratory animals [4]: induces respiratory paralysis, spasms and death | effect on storage and release of neurotransmitter [5]: selectively inhibits the storage and release of neurotransmitter | effect on synthesis of neurotransmitter [5]: without directly affecting the synthesis of this neurotransmitter

OC(Cc1ccc(Br)cc1)CN1CCC(c2ccccc2)CC1 (centres unmarked) [Compound 2a]
potency/activity relative to vesamicol, in words [2]: equipotent with vesamicol

COc1ccc2c3c1OC1C(O)C=CC4C(C2)N([C@@H]2CCCC[C@H]2O)CCC341 (some centres unmarked) [Compound 7a]
potency/activity relative to vesamicol, in words [2]: inactive

COc1ccc2c3c1OC1C(=O)CCC4C(C2)N([C@@H]2CCCC[C@H]2O)CCC314 (some centres unmarked) [Compound 7b]
potency/activity relative to vesamicol, in words [2]: inactive

OC1CCCCC1N1CCC2(C=Cc3ccccc32)CC1 (centres unmarked) [Compound 11a, 1'-(2-Hydroxycylohex-1-yl)spiro[1H-indene-1,4'-piperidine]Hydrochloride]
Pharmacological Activity ([6]; 10 umol/Kg): + | Pharmacological Activity ([6]; 22.5 umol/Kg): ++ | Pharmacological Activity ([6]; 45 umol/Kg): LD100 | Ki [1]: 0.622 ± 0.082 nM | Pharmacological Activity ([7]; 12.5 umol/Kg): + | Pharmacological Activity ([7]; 25 umol/Kg): LD40 (lethal dose for 40%) | Pharmacological Activity ([7]; 50 umol/Kg): LD60 (lethal dose for 60%) | Pharmacological Activity ([7]; 100 umol/Kg): LD100

OC1Cc2ccccc2CC1N1CCC2(C=Cc3ccccc32)CC1 (centres unmarked) [Compound 11b, 1'-(2-Hydroxy-1,2,3,4-tetrahydronaphth-3-yl)-spiro[1H-indene-1,4'-piperidine]Hydrochloride]
Pharmacological Activity ([6]; 1 umol/Kg): ++ | Pharmacological Activity ([6]; 5 umol/Kg): LD100 | Pharmacological Activity ([6]; 10 umol/Kg): LD100 | Pharmacological Activity ([6]; 20 umol/Kg): LD100 | Ki [1]: 0.121 ± 0.032 nM | Pharmacological Activity ([7]; 1.25 umol/Kg): + | Pharmacological Activity ([7]; 2.5 umol/Kg): LD20 (lethal dose for 20% of animals tested) | Pharmacological Activity ([7]; 5.0 umol/Kg): LD20 (lethal dose for 20% of animals tested) | Pharmacological Activity ([7]; 10 umol/Kg): LD40 (lethal dose for 40%) | Pharmacological Activity ([7]; 20 umol/Kg): LD60 (lethal dose for 60%) | Pharmacological Activity ([7]; 40 umol/Kg): LD100

OC1CCN(Cc2ccccc2I)CC1N1CCC2(C=Cc3ccccc32)CC1 (centres unmarked) [Compound 11c, 1'-(4-Hydroxy1-(2-iodobenzyl)piperidin-3-yl)-spiro[1H-indene-1,4'-piperidine]dihydrochloride]
Ki [1]: 0.798 ± 0.187 nM

OC1CCN(Cc2cccc(I)c2)CC1N1CCC2(C=Cc3ccccc32)CC1 (centres unmarked) [Compound 11d, 1'-(4-Hydroxy1-(3-iodobenzyl)piperidin-3-yl)-spiro[1H-indene-1,4'-piperidine]dihydrochloride]
Ki [1]: 0.264 ± 0.078 nM

OC1CCCCC1N1CCC2(CCCc3ccccc32)CC1 (centres unmarked) [Compound 13a, 3,4-Dihydro-1'-(2-Hydroxycyclohex-1-yl)-spiro[naphthalene-1,4'-piperidine]hydrochloride]
Ki [1]: 24.2 ± 5.71 nM

OC1Cc2ccccc2CC1N1CCC2(CCCc3ccccc32)CC1 (centres unmarked) [Compound 13b, 3,4-Dihydro-1'-(2-hydroxy-1,2,3,4-tetrahydronaphth-3-yl)-spiro[naphthalene-1(2H), 4'-piperidine]hydrochloride]
Ki [1]: 18.4 ± 14 nM

OC1CCN(Cc2ccccc2I)CC1N1CCC2(CCCc3ccccc32)CC1 (centres unmarked) [Compound 13c, 1'-(1-(2-Iodobenzyl)-4-hydroxypiperidin-3-yl)-3,4-dihydrospiro[naphthalene-1(2H),4'-piperidine]]
Ki [1]: 5.8 ± 1.7 nM

OC1CCN(Cc2cccc(I)c2)CC1N1CCC2(CCCc3ccccc32)CC1 (centres unmarked) [Compound 13d, 1'-(1-(3-Iodobenzyl)-4-hydroxypiperidin-3-yl)-3,4-dihydrospiro[naphthalene-1(2H),4'-piperidine]]
Pharmacological Activity ([6]; 50 umol/Kg): S | Pharmacological Activity ([6]; 125 umol/Kg): LD100 | Ki [1]: 0.082 ± 0.02 nM | potency relative to vesamicol, in words ([1]; compared with vesamicol / (-)-vesamicol): at least ten times more potent than (-)-vesamicol

OC1CCN(Cc2ccc(F)cc2)CC1N1CCC2(CCCc3ccccc32)CC1 (centres unmarked) [Compound 13f, 1'-(1-(4-fluorobenzyl)-4-hydroxypiperidin-3-yl)-3,4-dihydrospiro[naphthalene-1(2H),4'-piperidine]]
Ki [1]: 2.6 ± 0.9 nM

OC1Cc2ccccc2CC1N1CCC2(CC1)C(Br)=Cc1ccccc12 (centres unmarked) [Compound 14, 1'-(2-Hydroxy-1,2,3,4-tetrahydronaphth-3-yl)-spiro[2-bromo-1H-indene-1,4'-piperidine]Hydrochloride]
Pharmacological Activity ([6]; 12.5 umol/Kg): + | Pharmacological Activity ([6]; 25 umol/Kg): LD100 | Pharmacological Activity ([6]; 50 umol/Kg): LD100 | increase in potency on bromine substitution at C2 ([1]; 11a vs 14): 20 fold | Ki [1]: 0.038 ± 0.006 nM

OC1Cc2ccccc2CC1N1CCC2(C=Cc3c(Br)cccc32)CC1 (centres unmarked) [Compound 15, 1'-(2-Hydroxy-1,2,3,4-tetrahydronaphth-3-yl)-spiro[4-bromo-1H-indene-1,4'-piperidine]Hydrochloride]
Pharmacological Activity ([6]; 50 umol/Kg): + | Ki [1]: 0.212 ± 0.063 nM

OC1Cc2ccccc2CC1N1CCC2(C=Cc3cc(Br)ccc32)CC1 (centres unmarked) [Compound 16, 1'-(2-Hydroxy-1,2,3,4-tetrahydronaphth-3-yl)-spiro[5-bromo-1H-indene-1,4'-piperidine]Hydrochloride]
Ki [1]: 1.4 ± 0.3 nM

OC1Cc2ccccc2CC1N1CCC2(C=Cc3ccc(Br)cc32)CC1 (centres unmarked) [Compound 17, 1'-(2-Hydroxy-1,2,3,4-tetrahydronaphth-3-yl)spiro[6-bromo-1H-indene-1,4'-piperidine]Hydrochloride]
Ki [1]: 0.271 ± 0.056 nM | effect of bromine on potency ([1]; in words): slight reduction in potency

OC1CCN(Cc2cccc(I)c2)CC1N1CCC(c2ccccc2)CC1 (centres unmarked) [MIBT]
potency/activity relative to vesamicol, in words [2]: potent ligands

OC1CCNCC1N1CCC(c2ccccc2)CC1 (centres unmarked) [trozamicol]
potency/activity relative to vesamicol, in words [2]: poor ligand for vesamicol receptor
